Experimental data taken from ChEMBL document CHEMBL1147625, “HIV-1 integrase pharmacophore model derived from diverse classes of inhibitors” (Bioorg Med Chem Lett, 2004).

biological target: Human immunodeficiency virus type 1 integrase (Human immunodeficiency virus 1, UniProt Q7ZJM1)
Sequence (Q7ZJM1 whole entry): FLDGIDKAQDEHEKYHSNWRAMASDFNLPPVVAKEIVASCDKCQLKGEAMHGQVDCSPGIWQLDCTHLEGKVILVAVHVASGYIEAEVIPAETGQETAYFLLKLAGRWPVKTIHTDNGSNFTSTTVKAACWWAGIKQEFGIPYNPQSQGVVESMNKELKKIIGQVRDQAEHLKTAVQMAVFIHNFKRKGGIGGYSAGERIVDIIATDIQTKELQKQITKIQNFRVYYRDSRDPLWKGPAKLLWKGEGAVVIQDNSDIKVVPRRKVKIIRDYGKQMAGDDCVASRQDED
Description: Inhibitory activity against HIV-1 integrase

Row | SMILES | IC50 [µM]
1 | [N-]=[N+]=NCc1ccc(/C(O)=C\C(=O)C(=O)O)cc1CN=[N+]=[N-] | 0.26
2 | CC1=NN(C(=O)c2ccccc2O)C(=O)/C1=C\c1cccc(O)c1 | 7.4
3 | CC1C=C(NC(=O)C2=CC(NC(=O)C3=CC(NC(=O)c4ccc(C(=O)NC5=CC(C)C(C(=O)NC6=CC(C)C(C(=O)NC7=CC(C)C(C(=O)NCCC(=N)N)=C7)=C6)=C5)nc4)=CC3C)=CC2C)C=C1C(=O)NCCC(=N)N (stereo not drawn) | 0.1
4 | O=C(O)C(=O)/C=C(\O)c1cc(OCc2ccccc2)cc(OCc2ccccc2)c1 | 0.059
5 | CC1C=C(NC(=O)C2=CC(NC(=O)C3=CC(N(C)C(=O)c4ccc(C(=O)N(C)C5=CC(C)C(C(=O)NC6=CC(C)C(C(=O)NC7=CC(C)C(C(=O)NCCCN(C)C)=C7)=C6)=C5)cc4)=CC3C)=CC2C)C=C1C(=O)NCCCN(C)C (stereo not drawn) | 0.07
6 | CC1=NN(C(=O)c2ccc(Cl)cc2)C(=O)/C1=C\c1ccc(O)cc1 | > 293
7 | CC1C=C(NC(=O)C2=CC(NC(=O)C3=CC(NC(=O)c4ccc(C(=O)NC5=CC(C)C(C(=O)NC6=CC(C)C(C(=O)NC7=CC(C)C(C(=O)NCCC(=N)N)=C7)=C6)=C5)cc4)=CC3C)=CC2C)C=C1C(=O)NCCC(=N)N (stereo not drawn) | 0.09
8 | O=C(NNCC(O)COc1ccccc1)c1ccccc1O (stereo not drawn) | > 200
9 | COc1cc(C(C2=C(O)C(=O)c3ccccc3C2=O)C2C(=O)c3ccccc3C(=O)C2O)cc(Br)c1O (stereo not drawn) | 20
10 | CCCCCc1cc(O)cc2c1Oc1c(C=O)c(O)c(Cl)c(C(=O)CCCC)c1C(=O)O2 | 33.6
11 | O=C1C(O)=C(C(C2=C(O)C(=O)c3ccccc3C2=O)c2ccc(Cl)cc2)C(=O)c2ccccc21 | > 100
12 | COc1ccc(/C=C2\C(=O)N(C(=O)c3ccccc3O)N=C2C)cc1 | 0.6
13 | COc1cc(C)c2c(c1C)OC(=O)c1c(C)c(Cl)c(O)c(C=O)c1O2 | 2.1
14 | CC(Cc1ccc(O)c(O)c1)(C(=O)O)C(C)(Cc1ccc(O)c(O)c1)C(=O)O (stereo in doubt; form 2) | 0.23
15 | O=C(/C=C/c1ccc(O)c(O)c1)NCC(OC(=O)/C=C/c1ccc(O)c(O)c1)C(=O)O (stereo not drawn) | 0.37
16 | CC(CCC(=O)O)C1CC[C@H]2[C@@H]3C(OC(=O)/C=C/c4ccc(O)c(O)c4)CC4CC(OC(=O)/C=C/c5ccc(O)c(O)c5)CC[C@]4(C)[C@H]3CC(OC(=O)/C=C/c3ccc(O)c(O)c3)[C@]12C (stereo partly drawn) | 0.97
17 | CC(Cc1ccc(O)c(O)c1)(C(=O)O)C(C)(Cc1ccc(O)c(O)c1)C(=O)O (stereo in doubt; form 1) | 0.44
18 | [N-]=[N+]=NC1CC(N=[N+]=[N-])c2cc(/C(O)=C\C(=O)C(=O)O)ccc21 (stereo not drawn) | 0.36
19 | O=C1c2ccccc2SCC2CSC(c3ccccc3)N12 (stereo not drawn) | 322
20 | [N-]=[N+]=NC1CCC(N=[N+]=[N-])c2cc(/C(O)=C\C(=O)C(=O)O)ccc21 (stereo not drawn) | 0.32
21 | N#CCCc1cccc(/C(O)=C\C(=O)C(=O)O)c1 | 1.5
22 | CN(C)Cc1ccc2n1Cc1ccccc1SC2c1ccc(F)cc1 (stereo not drawn) | 1000
23 | COC(=O)c1ccc(CC(=O)c2c(C)cc(O)c(C=O)c2O)c(C)c1O | 123
